Key:
[1] = target: T1, human M3 receptors (Homo sapiens, UniProt P20309); assay: Binding test to human M3 muscarinic receptor ([3H]-NMS displacement); details: membranes from CHO-K1 cells transfected with human M3 receptor; [3H]-NMS 0.3-0.5 nM, 60 min, 25° C.; mean of two independent experiments, each in duplicate
T1 construct: expressed in transfected cells; host or cells: CHO-K1
Procedure: (§1) Binding Test to Human M2 and M3 Muscarinic Receptors
(§2) Membranes from CHO—K1 cells transfected with human M2 or M3 receptors were used. The summarised experimental procedure for both receptors was the following: cell membranes (15-20 μg) were incubated with [^3H]-NMS (0.3-0.5 nM) for 60 min at 25° C., in presence or absence of the antagonists. Incubation was carried out in 96 wells polystyrene microplates in a total incubation volume of 0.2 mL of PBS pH 7.4. Non specific binding was determined in parallel assays in presence of atropine (5 μM). Samples were filtered through type GF/C glass fibre, preincubated with PEI 0.3%. Filters were washed 3-4 times with 50 mM Tris-HCl, 0.9% NaCl, pH 7.4 at 4° C., and dried at 50° C. for 45 min. Filter bound radioactivity was quantified by liquid scintillation counting.
(§3) For the calculation of the inhibition constant (Ki), displacement curves were analysed by non-linear regression (GraphPad Prism). Dissociation constant (Kd) of [^3H]-NMS for each receptor was obtained through the saturation curves obtained in the same conditions as the experiments carried out with the corresponding antagonists.

[2] = target: T2, human M2 receptors (Homo sapiens, UniProt P08172); assay: Binding test to human M2 muscarinic receptor ([3H]-NMS displacement), reported as M2/M3 selectivity; details: ratio of Ki at cloned human M2 versus M3 receptors; ratios greater than 1 indicate M3 selective activity
T2 construct: expressed in transfected cells; host or cells: CHO-K1
T2 sequence (P08172 1-466): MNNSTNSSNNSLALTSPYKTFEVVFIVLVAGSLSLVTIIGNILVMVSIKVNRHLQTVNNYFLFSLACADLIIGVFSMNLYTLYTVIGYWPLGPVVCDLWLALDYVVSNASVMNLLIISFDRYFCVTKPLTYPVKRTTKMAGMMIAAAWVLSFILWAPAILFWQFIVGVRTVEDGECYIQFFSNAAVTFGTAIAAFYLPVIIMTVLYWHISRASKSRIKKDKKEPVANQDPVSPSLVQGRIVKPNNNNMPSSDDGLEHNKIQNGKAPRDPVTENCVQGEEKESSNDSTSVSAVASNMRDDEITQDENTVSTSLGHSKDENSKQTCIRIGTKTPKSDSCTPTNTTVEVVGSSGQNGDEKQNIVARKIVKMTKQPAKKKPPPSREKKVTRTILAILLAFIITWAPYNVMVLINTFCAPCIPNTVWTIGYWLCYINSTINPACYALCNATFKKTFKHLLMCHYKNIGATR
Procedure: as §1, §2, §3

T1 sequence (P20309 whole entry): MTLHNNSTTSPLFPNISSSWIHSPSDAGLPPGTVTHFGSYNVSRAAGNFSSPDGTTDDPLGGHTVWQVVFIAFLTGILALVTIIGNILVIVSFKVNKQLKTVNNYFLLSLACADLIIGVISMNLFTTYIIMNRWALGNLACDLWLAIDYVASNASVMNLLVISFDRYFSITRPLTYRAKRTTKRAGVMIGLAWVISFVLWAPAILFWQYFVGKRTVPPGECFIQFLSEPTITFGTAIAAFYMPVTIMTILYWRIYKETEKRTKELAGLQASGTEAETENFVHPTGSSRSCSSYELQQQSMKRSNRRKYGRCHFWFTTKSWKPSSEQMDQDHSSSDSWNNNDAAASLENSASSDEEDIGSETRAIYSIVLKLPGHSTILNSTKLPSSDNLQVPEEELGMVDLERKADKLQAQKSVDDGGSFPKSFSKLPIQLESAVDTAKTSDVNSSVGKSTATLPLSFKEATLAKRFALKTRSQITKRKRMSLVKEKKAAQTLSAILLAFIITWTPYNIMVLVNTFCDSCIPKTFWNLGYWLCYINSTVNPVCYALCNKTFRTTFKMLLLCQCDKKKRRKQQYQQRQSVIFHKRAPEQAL

| SMILES | Ki [1] [nM] | M2/M3 (ratio) [2] [ratio] |
| --- | --- | --- |
| O=C(O[C@H]1CN2CCC1CC2)N1CCc2ccccc2[C@@H]1c1ccccc1 [SOLIFENACIN, solifenacin, reference compound] | 8.3 | 10 |
| O=C(O[C@H]1C[N+]2(CCSc3ccccc3)CCC1CC2)N(Cc1cc(F)c(F)c(F)c1)c1ccccc1F.[Cl-] [Ex. 50, (R)-3-[(2-Fluorophenyl)-(3,4,5-trifluorobenzyl)carbamoyloxy]-1-(2-phenylsulfanylethyl)-1-azoniabicyclo[2.2.2]octane; chloride] | 0.06 | 345 |
| Cc1cccc(N(Cc2ccsc2)C(=O)O[C@H]2CN3CCC2CC3)c1.Cl [Int. 32, (R)-Thiophen-3-ylmethyl-m-tolylcarbamic acid 1-azabicyclo[2.2.2]oct-3-yl ester; hydrochloride] | 0.15 | 23 |
| O=C(C[N+]12CCC(CC1)[C@@H](OC(=O)N(Cc1ccsc1)c1cccc(F)c1)C2)c1ccccc1.[Br-] [Ex. 69, (R)-3-[(3-Fluorophenyl)thiophen-3-ylmethylcarbamoyloxy]-1(2-oxo-2-phenylethyl)-1-azoniabicyclo[2.2.2]octane; bromide] | 0.02 | 32 |
| Cl.O=C(O[C@H]1CN2CCC1CC2)N(Cc1ccc(Cl)s1)c1cccc(F)c1 [Int. 29, (R)-(5-Chlorothiophen-2-ylmethyl)-(3-fluorophenyl)carbamic acid 1-azabicyclo[2.2.2]oct-3-yl ester; hydrochloride] | 0.02 | 105 |
| O=C(O[C@H]1C[N+]2(CCCOc3ccccc3)CCC1CC2)N(Cc1ccc(F)cc1)c1ccccc1.[Br-] [Ex. 11, (R)-3-[(4-Fluorobenzyl)phenylcarbamoyloxy]-1-(3-phenoxypropyl)-1-azoniabicyclo[2.2.2]octane; bromide] | 0.34 | 80 |

From patent US7452904B2, “1-alkyl-1-azoniabicyclo' 2.2.2 octane carbamate derivatives and their use as muscarinic receptor antagonists” (Chiesi Farmaceutici S.p.A., priority 2001, dated 2008)
